Source: US7524487B2, “Compositions and methods for modulating interleukin-10” (University of Maryland, priority 2005, dated 2009)

How the values were obtained:
[1] = test system: IL-10 promoter; experiment: ChIP of histone H3 phosphorylation at the IL-10 promoter in stimulated BMMφ; assay type: cell-based, mice
Experimental: BMMφ were stimulated with medium (open bars), LPS (solid bars) or E-IgG+LPS (striped bars) for 15 minutes (A), or the indicated times (B) and ChIP assays were carried out as described in Materials and Methods. Immunoprecipitations utilized antibodies specific to phospho-H3 (left panel) or acetyl-H3 (right panel). A. conventional RT-PCR and B. real time PCR were carried out using IL-10 promoter or IL-12p40 promoter specific primers. For real time PCR, samples were normalized to input DNA controls.
Cells were pretreated with PD98059 (10 μM), SB203580 (1 μM) or medium for 30 min then stimulated with medium (open bar), IgG-OVA (dotted bar), LPS (solid bar), or both (striped bars) for 40 min. ChIP analysis was carried out using a phospho-H3 specific Ab. A. Conventional RT-PCR was carried out using IL-10 promoter or IL-12p40 promoter specific primers. B. Real time PCR analysis of samples obtained in A. Samples were normalized to input DNA controls.
(§1) FIG. 22 is a graph showing Inhibition of histone modifications by blocking ERK. BMMφ were pre-treated with PD98059 (15 μM) (solid bars) or drug vehicle (open bars) for 1 hour and then stimulated with IC plus LPS (10 ng/mL). Cross-linked chromatin fragments were immunoprecipitated with antibody to phosphorylated histone H3 at Ser 10 or antibody to Sp1. The DNA was purified and analyzed for the presence of IL-10 promoter sequences corresponding to nucleosome −2 by QRT-PCR. The data were plotted graphically as the percentage change relative to drug vehicle (IC/LPS) at 30 min post-stimulation for histone H3 phosphorylation, and at 45 min post-stimulation for Sp1 recruitment. One representative from two independent experiments is presented.
Chromatin immunoprecipitation (ChIP). ChIPs were carried out using the ChIP Assay kit following the manufacturer's protocol (Upstate USA, Inc., Lake Placid, N.Y.). Briefly, 1×10^6 BMMφ were plated overnight in 6-well plates. Cells were stimulated as described in Figure Legends then fixed for 10 min at 37° C. in paraformaldehyde (1% final concentration). […]

[2] = test system: IL-10 promoter; experiment: ChIP of Sp1 and STAT3 binding to the IL-10 promoter in situ in stimulated BMMφ; assay type: cell-based, mice
Experimental: BMMφ were stimulated with medium (open bar), E-IgG (dotted bar), LPS (solid bar), or LPS+E-IgG (striped bar) for 40 min. Some cells were pretreated with PD98059 (10 μM). Immunoprecipitations were carried out using either Sp1 or STAT3 specific Abs. A. Conventional RT-PCR was carried out using primers which amplify the putative Sp1 or STAT3 binding sites of the IL-10 promoter respectively. B. Real time PCR analysis of samples obtained in A. Samples were normalized to input DNA controls.
as §1
Chromatin immunoprecipitation (ChIP). ChIPs were carried out using the ChIP Assay kit following the manufacturer's protocol (Upstate USA, Inc., Lake Placid, N.Y.). […]

COc1cccc(-c2cc(=O)c3ccccc3o2)c1N [PD98059]
histone H3 Ser 10 phosphorylation at IL-10 promoter nucleosome −2 (ChIP, QRT-PCR) ([1]; BMMφ pre-treated with PD98059 15 μM for 1 hour, IC plus LPS 10 ng/mL, 30 min post-stimulation, relative to drug vehicle): substantial loss | histone H3 phosphorylation at the IL-10 promoter induced by immune complex (ChIP) ([1]; BMMφ pretreated 30 min with PD98059 10 μM or SB203580 1 μM, then IgG-OVA + LPS for 40 min): completely abrogated | Sp1 recruitment to IL-10 promoter nucleosome −2 (ChIP, QRT-PCR) ([2]; BMMφ pre-treated with PD98059 15 μM for 1 hour, IC plus LPS 10 ng/mL, 45 min post-stimulation, relative to drug vehicle): dramatically reduced | Sp1 and STAT3 transcription factor binding to the IL-10 promoter in situ (ChIP) ([2]; BMMφ pretreated with PD98059 10 μM, LPS + E-IgG for 40 min): reversed
